Results: PubChem BioAssay AID2060492 (Molecular Pharmacology Branch, DTP, NCI, 2025)

Test system: 695427-040-R-J1-PDC complex spheroids, viability percent T/C
Assay: Anticancer human tumor 695427-040-R-J1-PDC patient-derived colon adenocarcinoma cell line growth inhibition [GQUAD]
Details: for IC50: curve of first compound; for viability, T/C: stronger effect = lower value; active = viability on the fitted dose curve at most 10% of control; inactive = the rest
Method in brief: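 Tumor cells were grown as complex spheroids with HUVEC endothelial cells and mesenchymal stem cells as stroma. G-quadruplex stabilizers were combined with targeted agents over half-log dilutions from near the clinical Cmax, or from 10 microM.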

[1] = second compound 0.0316 µM, first compound 0.0316 µM
[2] = second compound 0.0316 µM, first compound 0.316 µM
[3] = second compound 0.1 µM, first compound 0.0316 µM
[4] = second compound 0.1 µM, first compound 0.316 µM
[5] = second compound 0.316 µM, first compound 0.0316 µM
[6] = second compound 0.316 µM, first compound 0.316 µM
[7] = second compound 1 µM, first compound 0.0316 µM
[8] = second compound 1 µM, first compound 0.316 µM
[9] = second compound 3.16 µM, first compound 0.0316 µM
[10] = second compound 3.16 µM, first compound 0.316 µM
[11] = second compound 10 µM, first compound 0.0316 µM
[12] = second compound 10 µM, first compound 0.316 µM
[13] = second compound 0.0316 µM, first compound 0.1 µM
[14] = second compound 0.0316 µM, first compound 1 µM
[15] = second compound 0.0316 µM, first compound 3.16 µM
[16] = second compound 0.0316 µM, first compound 10 µM
[17] = second compound 0.1 µM, first compound 0.1 µM
[18] = second compound 0.1 µM, first compound 1 µM
[19] = second compound 0.1 µM, first compound 3.16 µM
[20] = second compound 0.1 µM, first compound 10 µM
[21] = second compound 0.316 µM, first compound 0.1 µM
[22] = second compound 0.316 µM, first compound 1 µM
[23] = second compound 0.316 µM, first compound 3.16 µM
[24] = second compound 0.316 µM, first compound 10 µM
[25] = second compound 1 µM, first compound 0.1 µM
[26] = second compound 1 µM, first compound 1 µM
[27] = second compound 1 µM, first compound 3.16 µM
[28] = second compound 1 µM, first compound 10 µM
[29] = second compound 3.16 µM, first compound 0.1 µM
[30] = second compound 3.16 µM, first compound 1 µM
[31] = second compound 3.16 µM, first compound 3.16 µM
[32] = second compound 3.16 µM, first compound 10 µM
[33] = second compound 10 µM, first compound 0.1 µM
[34] = second compound 10 µM, first compound 1 µM
[35] = second compound 10 µM, first compound 3.16 µM
[36] = second compound 10 µM, first compound 10 µM
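Note: spheroids exposed to compounds for seven days before readout.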

Cc1[nH]c2ccccc2c1CCNCc1ccc(/C=C/C(=O)NO)cc1 + CN(C)c1ccc(Nc2c3ccc(NC(=O)CCN4CCCC4)cc3nc3cc(NC(=O)CCN4CCCC4)ccc23)cc1
inactive: viability, T/C (second compound 0.0316 µM, first compound 0.000999 µM) 105% | viability, T/C (second compound 0.0316 µM, first compound 0.00316 µM) 111% | viability, T/C (second compound 0.0316 µM, first compound 0.00999 µM) 106% | viability, T/C [1] 101% | viability, T/C (second compound 0.0316 µM, first compound 0.0999 µM) 106% | viability, T/C [2] 72.2% | viability, T/C (second compound 0.1 µM, first compound 0.000999 µM) 119% | viability, T/C (second compound 0.1 µM, first compound 0.00316 µM) 93.9% | viability, T/C (second compound 0.1 µM, first compound 0.00999 µM) 112% | viability, T/C [3] 99.3% | viability, T/C (second compound 0.1 µM, first compound 0.0999 µM) 97.3% | viability, T/C [4] 69.7% | viability, T/C (second compound 0.316 µM, first compound 0.000999 µM) 98.2% | viability, T/C (second compound 0.316 µM, first compound 0.00316 µM) 97.5% | viability, T/C (second compound 0.316 µM, first compound 0.00999 µM) 95.2% | viability, T/C [5] 96.5% | viability, T/C (second compound 0.316 µM, first compound 0.0999 µM) 105% | viability, T/C [6] 78.4% | viability, T/C (second compound 1 µM, first compound 0.000999 µM) 97.8% | viability, T/C (second compound 1 µM, first compound 0.00316 µM) 106% | viability, T/C (second compound 1 µM, first compound 0.00999 µM) 98.8% | viability, T/C [7] 108% | viability, T/C (second compound 1 µM, first compound 0.0999 µM) 98% | viability, T/C [8] 68% | viability, T/C (second compound 3.16 µM, first compound 0.000999 µM) 93.4% | viability, T/C (second compound 3.16 µM, first compound 0.00316 µM) 101% | viability, T/C (second compound 3.16 µM, first compound 0.00999 µM) 101% | viability, T/C [9] 92.8% | viability, T/C (second compound 3.16 µM, first compound 0.0999 µM) 86.8% | viability, T/C [10] 61.1% | viability, T/C (second compound 10 µM, first compound 0.000999 µM) 87.5% | viability, T/C (second compound 10 µM, first compound 0.00316 µM) 85.9% | viability, T/C (second compound 10 µM, first compound 0.00999 µM) 94.7% | viability, T/C [11] 82.6% | viability, T/C (second compound 10 µM, first compound 0.0999 µM) 91.1% | viability, T/C [12] 61.1%
> 0.316 µM: IC50 (second compound 0.0316 µM) | IC50 (second compound 0.1 µM) | IC50 (second compound 0.316 µM) | IC50 (second compound 1 µM) | IC50 (second compound 3.16 µM) | IC50 (second compound 10 µM)

O=C(NO)c1cnc(N2CCN(S(=O)(=O)c3ccc4ccccc4c3)CC2)nc1 + CN(C)c1ccc(Nc2c3ccc(NC(=O)CCN4CCCC4)cc3nc3cc(NC(=O)CCN4CCCC4)ccc23)cc1
0.431 µM: IC50 (second compound 0.316 µM)
inactive: viability, T/C [1] 98.9% | viability, T/C [13] 93.1% | viability, T/C [2] 66.5% | viability, T/C [3] 107% | viability, T/C [17] 91.7% | viability, T/C [4] 72.4% | viability, T/C [5] 100% | viability, T/C [21] 101% | viability, T/C [6] 67.1% | viability, T/C [7] 97.1% | viability, T/C [25] 87.9% | viability, T/C [8] 62.3% | viability, T/C [9] 90.7% | viability, T/C [29] 89.5% | viability, T/C [10] 70% | viability, T/C [11] 84% | viability, T/C [33] 84.4% | viability, T/C [12] 56.8%
0.401 µM: IC50 (second compound 1 µM)
0.447 µM: IC50 (second compound 3.16 µM)
active: viability, T/C [14] 4.08% | viability, T/C [15] 0.2% | viability, T/C [16] 0.24% | viability, T/C [18] 3.81% | viability, T/C [19] 0.24% | viability, T/C [20] 0.42% | viability, T/C [22] 3.52% | viability, T/C [23] 0.21% | viability, T/C [24] 0.44% | viability, T/C [26] 3.42% | viability, T/C [27] 0.2% | viability, T/C [28] 0.29% | viability, T/C [30] 3.74% | viability, T/C [31] 0.28% | viability, T/C [32] 0.31% | viability, T/C [34] 3.35% | viability, T/C [35] 0.35% | viability, T/C [36] 0.32%
0.366 µM: IC50 (second compound 10 µM)
0.461 µM: IC50 (second compound 0.1 µM)
0.429 µM: IC50 (second compound 0.0316 µM)

CC(C)n1c(=O)n(C)c2cnc3cc(F)c(-c4ccc(OCCCN5CCCCC5)nc4)cc3c21 + Cc1[nH]c2ccc(F)cc2c1-c1nc2c3cccnc3c3ncccc3c2[nH]1
7.23 µM: IC50 (second compound 10 µM)
9.84 µM: IC50 (second compound 1 µM)
inactive: viability, T/C [1] 116% | viability, T/C [13] 92.2% | viability, T/C [2] 116% | viability, T/C [14] 74.3% | viability, T/C [15] 93.5% | viability, T/C [16] 65.4% | viability, T/C [3] 101% | viability, T/C [17] 97.2% | viability, T/C [4] 128% | viability, T/C [18] 91.7% | viability, T/C [19] 94.3% | viability, T/C [20] 58.8% | viability, T/C [5] 102% | viability, T/C [21] 120% | viability, T/C [6] 96.4% | viability, T/C [22] 98.7% | viability, T/C [23] 99.2% | viability, T/C [24] 61.3% | viability, T/C [7] 84.2% | viability, T/C [25] 106% | viability, T/C [8] 111% | viability, T/C [26] 109% | viability, T/C [27] 106% | viability, T/C [28] 49.1% | viability, T/C [9] 86.8% | viability, T/C [29] 85% | viability, T/C [10] 94.8% | viability, T/C [30] 96.2% | viability, T/C [31] 92.2% | viability, T/C [32] 50.3% | viability, T/C [11] 61.7% | viability, T/C [33] 83% | viability, T/C [12] 95.5% | viability, T/C [34] 80.9% | viability, T/C [35] 87.1% | viability, T/C [36] 37.6%
> 10 µM: IC50 (second compound 0.0316 µM) | IC50 (second compound 0.1 µM) | IC50 (second compound 0.316 µM) | IC50 (second compound 3.16 µM)
